This note sets out measurements from patent US8536210B2, “Compounds for inhibiting semicarbazide-sensitive amine oxidase (SSAO)/vascular adhesion protein-1 (VAP-1) and uses thereof for treatment and prevention of diseases” (Semmelweis Egyetem, priority 2008, dated 2013).

The target of data set [1] is human recombinant VAP-1 (SSAO/VAP-1 enzyme) (Homo sapiens (Human), UniProt Q16853). Put plainly: In vitro inhibition of SSAO activity on human recombinant VAP-1 (colorimetric, benzylamine substrate). It is filed as biochemical. The note with it: for IC50: recombinant SSAO/VAP-1 in CHO cell homogenate, 1 mM benzyl amine. As to the method:
For determining the SSAO/VAP-1 activity, the colorimetric method described by Holt, A (Holt, A., Anal. Biochem. 244, 384, 1997) for monoamine oxidase and analogous enzymes was used. Recombinant SSAO/VAP-1 enzyme was expressed in Chinese Hamster Ovary cells (CHO). These cells and cell cultures have been described earlier (Smith, D. J. et al, J. Exp. Med. 188, 17, 1998). The cell homogenate was prepared as follows: a suspension was made of approximately 3.6×10^8 cells in 25 ml lysation buffer (150 mM NaCl, 10 mM Tris-base pH 7.2, 1.5 mM MgCl2, 1% NP40), that was stirred for 1 night and incubated at 4° C. The homogenate was centrifugated (18000 g). The supernatant was used directly afterwards for the measurement. SSAO/VAP-1 activity measurement was carried out as follows on 96 precisely microtitrated plates, a given amount of inhibitor was added to each. The amount of the inhibitors varied among the measurements, the final concentration being between 1 nM and 50 μM in general, in 20 μl aqueous total volume for all cases. Then 0.2 M potassium phosphate buffer (pH=7.6) was added, to obtain a total volume of 200 μl 50 μl freshly prepared chromogen solution was given, which contains 1 mM of vanillic acid, 500 μM 4-aminoantipyrin, 8 U/ml horse radish peroxidase, and such an amount of SSAO/VAP-1 containing CHO cell homogenate that causes a 0.6 A-490 per h change, the latter being in the linear coherence scope of the method. The plates were incubated for 30 min at 37° C. and the background absorbance was measured at 490 nm by a Wallac Victor II apparatus. For starting the enzyme reaction, 20 μl 10 mM benzyl amine solution was added, the final concentration of which was therefore 1 mM. The plates were reincubated at 37° C. for 1 h. The increase in the absorbance showing the SSAO/VAP-1 activity was measured at 490 nm. The inhibition was calculated in the % of the control absorbance corrected with the background absorbance, IC50 values were calculated using GraphPad Prism.

Data set [2] relates to carrageenan-induced rat paw edema. Put plainly: Inhibition of carrageenan-induced rat paw edema. In kind it is in vivo. An excerpt: Carrageenan-induced rat paw edema has been extensively used in the evaluation of anti-inflammatory effects of various agents and it is useful in assessing the efficacy of compounds to alleviate acute inflammation (Whiteley P E, Dalrymple S A (1998) Models of inflammation: carrageenan-induced paw edema in the rat, in Current Protocols in Pharmacology (Enna S J, Williams M, Ferkany J W, Kenakin T, Porsolt R E, Sullivan J P eds) pp 5.4.1-5.4.3, John Wiley & Sons, New York.). Edema in the paws was induced by injecting 0.1 ml of a 1% solution of carrageenan intraplantary. […] […] Inhibitory effects are expressed in % values.

The test system of data set [3] is acetic acid induced writhing syndrome. Put plainly: Inhibition of acetic acid induced writhing on mice. In kind it is in vivo. Particulars: 20 minutes prior to acetic acid. As to the method:
The method described by Van der Wende (Van der Vende C, Margolin S, Fed. Proc., 15, 494, 1956) with the modifications of Witkin et al. (Witkin L B et al, J. Pharm. Exp. Ther., 133, 400, 1961) was applied. 0.2 ml of a 0.6% acetic acid solution was injected intraperitoneally, causing a typical writhing syndrome in 90% of the animals. Compounds of the invention were administered subcutaneously, 20 minutes prior to acetic acid exposure. Antianalgetic effect was determined by the formula, which is shown below, and is expressed in % values. (number of writhings in treatment group (5′)/number of writhings in control group (5′))×100

human recombinant VAP-1 (SSAO/VAP-1 enzyme), sequence (Q16853 whole entry): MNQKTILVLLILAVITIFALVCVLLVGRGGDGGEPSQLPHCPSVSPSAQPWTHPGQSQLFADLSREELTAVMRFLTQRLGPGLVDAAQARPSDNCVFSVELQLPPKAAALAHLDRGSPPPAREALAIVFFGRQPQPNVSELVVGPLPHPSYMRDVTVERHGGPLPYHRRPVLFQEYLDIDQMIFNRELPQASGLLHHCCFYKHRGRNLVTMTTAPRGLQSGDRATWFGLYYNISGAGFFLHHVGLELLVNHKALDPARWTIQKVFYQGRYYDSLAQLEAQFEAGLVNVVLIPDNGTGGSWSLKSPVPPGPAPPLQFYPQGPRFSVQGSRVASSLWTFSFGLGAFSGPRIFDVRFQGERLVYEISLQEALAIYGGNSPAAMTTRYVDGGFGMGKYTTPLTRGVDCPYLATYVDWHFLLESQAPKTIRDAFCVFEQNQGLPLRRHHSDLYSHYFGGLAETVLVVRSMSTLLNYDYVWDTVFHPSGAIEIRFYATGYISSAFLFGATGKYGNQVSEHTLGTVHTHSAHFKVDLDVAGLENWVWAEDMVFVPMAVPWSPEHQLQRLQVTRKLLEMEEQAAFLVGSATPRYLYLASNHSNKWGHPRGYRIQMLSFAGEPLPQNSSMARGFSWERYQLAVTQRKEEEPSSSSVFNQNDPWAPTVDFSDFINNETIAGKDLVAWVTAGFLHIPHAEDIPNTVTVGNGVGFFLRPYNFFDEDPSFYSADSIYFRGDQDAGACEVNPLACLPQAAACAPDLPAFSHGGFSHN

Regarding `Cn1ncc(N2CCCCC2)c(/C=N/O)c1=O` [Compound 29, E-2-Methyl-3-oxo-5-piperidino-2,3-dihydropyridazine-4-carbaldehyde oxime], the IC50 in data set [1] amounted to 240 µM.

In the case of `COc1ccc2c(c1)c(CC(=O)O)c(C)n2C(=O)c1ccc(Cl)cc1` [Indomethacin, reference compound], the “Inhibition of rat paw edema in %” value in data set [2] (2.5 mg/kg p.o., 60 min) is reported as 32 ± 2 %; in data set [2] (2.5 mg/kg p.o., 120 min) it was 51 ± 4 %; in data set [2] (2.5 mg/kg p.o., 180 min) it was 53 ± 5 %.

Turning to `CCSc1c(C=NOC)c(=O)n(C)c(=O)n1C` [Compound 25, 6-(Ethylthio)-1,3-dimethyl-2,4-dioxo-1,2,3,4-tetrahydropyrimidine-5-carbaldehyde O-methyloxime], in data set [1], the IC50 was 113 µM.

As for `ON=Cc1ccccc1-c1ccc2c(c1C=NO)OCO2` [Compound 12, 5-{2-[(hydroxyimino)methyl]phenyl}-1,3-benzodioxole-4-carbaldehyde oxime], the 50% inhibitory concentration (IC50) in data set [1] amounted to 180 µM.

With `CSc1c(C=NO)c(=O)n(C)c(=O)n1C` [Compound 22, 1,3-Dimethyl-6-(methylthio)-2,4-dioxo-1,2,3,4-tetrahydropyrimidine-5-carbaldehyde oxime], the “Inhibition of rat paw edema in %” value worked out at 15 ± 2% in data set [2] (7.5 mg/kg s.c., 60 min); 55 ± 5 % in data set [2] (7.5 mg/kg s.c., 120 min); 60 ± 5 % in data set [2] (7.5 mg/kg s.c., 180 min); 60 ± 6 % in data set [2] (15 mg/kg s.c., 60 min); 63 ± 7 % in data set [2] (15 mg/kg s.c., 120 min); 65 ± 7 % in data set [2] (15 mg/kg s.c., 180 min). The “Inhibition of rat paw edema in %” value was determined as 0% in data set [2] (30 mg/kg p.o., 60 min); 21 ± 2% in data set [2] (30 mg/kg p.o., 120 min); 21 ± 2% in data set [2] (30 mg/kg p.o., 180 min); 58 ± 7 % in data set [2] (30 mg/kg s.c., 60 min); 54 ± 5 % in data set [2] (30 mg/kg s.c., 120 min); 72 ± 8 % in data set [2] (30 mg/kg s.c., 180 min). Besides, the IC50 in data set [1] turned out to be 48 µM. Moreover, the entries for the “Inhibition of writhing syndrome in %” value in data set [3] (5 mg/kg s.c.) and in data set [3] (15 mg/kg s.c.) were 70 ± 5 % and 100%, respectively.

On to `ON=Cc1c(O)ccc2c1OCO2` [Compound 6, 5-Hydroxy-1,3-benzodioxole-4-carbaldehyde oxime], for which the IC50 in data set [1] worked out at 4.3 µM.

Regarding `ON=Cc1cccc2cccc(N3CCCC3)c12` [Compound 5, 8-Pyrrolidino-1-naphthaldehyde oxime], in data set [1] (at 50 μM), the inhibition at 50 µM worked out at 32%.

For `CC1Oc2ccc(Br)c(C=NO)c2O1` (centres unmarked) [Compound 10, 5-Bromo-2-methyl-1,3-benzodioxole-4-carbaldehyde oxime], the inhibition at 500 µM in data set [1] was found to be 35%.

With `COc1c(C=NO)c(=O)n(C)c(=O)n1C` [Compound 17, 6-Methoxy-1,3-dimethyl-2,4-dioxo-1,2,3,4-tetrahydropyrimidine-5-carbaldehyde oxime], the IC50 in data set [1] is 30 µM.

In the case of `CCSc1c(C=NO)c(=O)n(C)c(=O)n1C` [Compound 23, 6-(Ethylthio)-1,3-dimethyl-2,4-dioxo-1,2,3,4-tetrahydropyrimidine-5-carbaldehyde oxime], the IC50 in data set [1] came to 111 µM.

As for `Cn1ncc(N2CCCC2)c(-c2ccccc2C=NO)c1=O` [Compound 38, 2-(2-Methyl-3-oxo-5-pyrrolidino-2,3-dihydropyridazin-4-yl)benzaldehyde oxime], the inhibition at 500 µM in data set [1] came to 31%.

For `CCOc1c(C=NO)c(=O)n(C)c(=O)n1C` [Compound 16, 6-Ethoxy-1,3-dimethyl-2,4-dioxo-1,2,3,4-tetrahydropyrimidine-5-carbaldehyde oxime], the “Inhibition of rat paw edema in %” value in data set [2] (30 mg/kg s.c., 60 min) came out at 8 ± 1%; in data set [2] (30 mg/kg s.c., 120 min), 19 ± 2%; in data set [2] (30 mg/kg s.c., 180 min), 31 ± 4%. Besides, the “Inhibition of writhing syndrome in %” value in data set [3] (15 mg/kg s.c.) is given as 86 ± 7 %; in data set [3] (30 mg/kg s.c.), 96 ± 6 %.

In the case of `ON=Cc1c(Br)ccc2c1OCO2` [Compound 9, 5-Bromo-1,3-benzodioxole-4-carbaldehyde oxime], the “Inhibition of rat paw edema in %” value in data set [2] (7.5 mg/kg s.c., 60 min) is given as 63 ± 7 %; in data set [2] (7.5 mg/kg s.c., 120 min), 62 ± 6 %; in data set [2] (7.5 mg/kg s.c., 180 min), 66 ± 5 %; in data set [2] (15 mg/kg s.c., 60 min), 53 ± 5 %; in data set [2] (15 mg/kg s.c., 120 min), 52 ± 3 %; in data set [2] (15 mg/kg s.c., 180 min) it was 66 ± 7 %. In addition, the “Inhibition of rat paw edema in %” value in data set [2] (30 mg/kg p.o., 60 min) was 0%; in data set [2] (30 mg/kg p.o., 120 min) it was 5 ± 1%; in data set [2] (30 mg/kg p.o., 180 min), 0%; in data set [2] (30 mg/kg s.c., 60 min) it was 54 ± 6 %; in data set [2] (30 mg/kg s.c., 120 min), 40 ± 5 %; in data set [2] (30 mg/kg s.c., 180 min) it was 50 ± 5 %. Also, the IC50 in data set [1] was found to be 14.9 µM. The “Inhibition of writhing syndrome in %” value is 84 ± 8 % in data set [3] (15 mg/kg s.c.) and 80 ± 7 % in data set [3] (30 mg/kg s.c.).

With `C=CCN(C)c1c(C=NO)c(=O)n(C)c(=O)n1C` [Compound 27, 6-[Allyl(methyl)amino]-1,3-dimethyl-2,4-dioxo-1,2,3,4-tetrahydropyrimidine-5-carbaldehyde oxime], the IC50 in data set [1] was 41 µM.

Turning to `Cn1c(Sc2ccccc2)c(C=NO)c(=O)n(C)c1=O` [Compound 24, 1,3-Dimethyl-2,4-dioxo-6-(phenylthio)-1,2,3,4-tetrahydropyrimidine-5-carbaldehyde oxime], in data set [1], the IC50 came to 106 µM.

For the compound `C=CCOc1ccc2c(c1C=NO)OCO2` [Compound 8, 5-(Allyloxy)-1,3-benzodioxole-4-carbaldehyde oxime], the IC50 in data set [1] was found to be 95 µM.

Take `ON=CCCc1nc(-c2ccccc2)c(-c2ccccc2)o1` [Compound 40, 3-(4,5-Diphenyl-1,3-oxazol-2-yl)propanal oxime]: in data set [1], the IC50 came to 3.5 µM.

As for `CCCOc1c(C=NO)c(=O)n(C)c(=O)n1C` [Compound 18, 1,3-Dimethyl-2,4-dioxo-6-propoxy-1,2,3,4-tetrahydropyrimidine-5-carbaldehyde oxime], the IC50 in data set [1] worked out at 18 µM.

For the compound `COc1ccc(Cn2ncc(N3CCOCC3)c(/C=N/O)c2=O)cc1` [Compound 32, E-2-(4-Methoxybenzyl)-5-morpholino-3-oxo-2,3-dihydropyridazine-4-carbaldehyde oxime], the IC50 in data set [1] was determined as 263 µM.

As for `CCOc1c(C=NOC)c(=O)n(C)c(=O)n1C` [Compound 19, 6-Ethoxy-1,3-dimethyl-2,4-dioxo-1,2,3,4-tetrahydropyrimidine-5-carbaldehyde O-methyloxime], the IC50 in data set [1] worked out at 29 µM.

On to `CCCSc1c(C=NO)c(=O)n(C)c(=O)n1C` [Compound 21, 1,3-Dimethyl-2,4-dioxo-6-(propylthio)-1,2,3,4-tetrahydropyrimidine-5-carbaldehyde oxime], for which the IC50 in data set [1] came to 58 µM.

As to `CCOc1ccc2c(c1C=NO)OCO2` [Compound 7, 5-Ethoxy-1,3-benzodioxole-4-carbaldehyde oxime], the IC50 in data set [1] was determined as 40 µM.

Take `COc1cccc(C=NO)c1C` [Compound 1, 3-Methoxy-2-methylbenzaldehyde oxime]: the melting point came to 110 °C. The IC50 in data set [1] was 102 µM.

`Cn1nc2c(c(C=NO)c1=O)N1CCCC1CO2` (centres unmarked) [Compound 35, 3-Methyl-2-oxo-2,3,6a,7,8,9-hexahydro-6H-pyridazino[3,4-b]pyrrolo[1,2-d][1,4]oxazine-1-carbaldehyde oxime]: the inhibition at 500 µM in data set [1] was determined as 55%.
